In the NIST ThermoML archive (doi:10.1021/je700329a):
Where “and” joins values, the source holds several entries; their conditions need not be identical. Equal entries are not always repeated.

What was measured:
[1] = 101.33 kPa, Liquid; for viscosity: Stabinger Viscometer; for mass density: Vibrating tube method; for speed of sound: DSA 5000; for electrical conductivity: Alternating current cell with electrodes
[2] = wn = mass fraction of the nth substance listed; settings: 101 kPa, Liquid; for electrical conductivity: Alternating current cell with electrodes; for kinematic viscosity: Capillary tube (Ostwald / Ubbelohde) method; for speed of sound: Pulse-echo method; for mass density: Vibrating tube method

CCCCCC[n+]1ccn(C)c1.O=S(=O)([N-]S(=O)(=O)C(F)(F)F)C(F)(F)F
[1]
Settings | electrical conductivity [S/m] | mass density | speed of sound | viscosity
258.15 K | – | 1407.6 kg/m3 | – | 941.8 mPa·s
263.15 K | – | 1403.1 kg/m3 | – | 612.7 mPa·s
268.15 K | – | 1398.5 kg/m3 | – | 417.4 mPa·s
273.15 K | – | 1394 kg/m3 | – | 291.2 mPa·s
278.15 K | – | 1389.5 kg/m3 | – | 207.6 mPa·s
283.15 K | – | 1385 kg/m3 and 1385.9 kg/m3 and 1386 kg/m3 | 1262 m/s and 1262.4 m/s | 153.3 mPa·s
288.15 K | 0.135 | 1380.5 kg/m3 | – | 115.8 mPa·s
293.15 K | 0.173 | 1376.7 kg/m3 [middle of 4 runs] | 1238.4 m/s and 1238.5 m/s | 89.54 mPa·s and 89.26 mPa·s
298.15 K | 0.218 | 1372.1 kg/m3 [middle of 4 runs] | 1226.8 m/s and 1226.9 m/s | 70.09 mPa·s and 70.29 mPa·s
303.15 K | – | 1367.3 kg/m3 and 1367.5 kg/m3 and 1367.6 kg/m3 | 1215.5 m/s and 1215.6 m/s | 56.11 mPa·s
308.15 K | 0.328 | – | – | –
313.15 K | – | 1358.3 kg/m3 and 1358.4 kg/m3 | 1193.3 m/s and 1193.4 m/s | 37.41 mPa·s
323.15 K | 0.548 | 1349.3 kg/m3 and 1349.4 kg/m3 | 1171.5 m/s and 1171.6 m/s | 26.25 mPa·s
333.15 K | – | 1340.3 kg/m3 and 1340.4 kg/m3 | 1149.8 m/s and 1150.4 m/s | 19.22 mPa·s
343.15 K | – | 1331.3 kg/m3 and 1331.4 kg/m3 | 1128.4 m/s and 1129.6 m/s | 14.58 mPa·s
353.15 K | – | 1322.5 kg/m3 | – | 11.38 mPa·s
363.15 K | – | 1313.6 kg/m3 | – | 9.128 mPa·s
373.15 K | – | 1304.8 kg/m3 | – | 7.463 mPa·s

CCCCCC[n+]1ccn(C)c1.O=S(=O)([N-]S(=O)(=O)C(F)(F)F)C(F)(F)F + O
[2]
Settings | electrical conductivity [S/m] | kinematic viscosity [m2/s] | mass density [kg/m3] | speed of sound [m/s]
288.15 K, w2 = 1e-05 | 0.135 | – | – | –
288.15 K, w2 = 0.00094 | 0.142 | – | – | –
293.15 K, w2 = 1e-05 | 0.173 | – | – | –
293.15 K, w2 = 2e-05 | – | 6.53e-05 | – | –
293.15 K, w2 = 0.00094 | 0.18 | – | – | –
293.15 K, w2 = 0.0011 | – | 6.16e-05 | – | –
293.15 K, w2 = 0.00727 | 0.232 | – | – | –
293.15 K, w2 = 0.00784 | 0.237 | – | – | –
293.15 K, w2 = 0.0082 | – | 4.55e-05 | – | –
293.15 K, w2 = 0.00898 | 0.246 | – | – | –
298.15 K, w2 = 1e-05 | 0.218 | 5.12e-05 | – | –
298.15 K, w2 = 2e-05 | – | 5.13e-05 | – | –
298.15 K, w2 = 3.5e-05 | – | – | 1372.07 | 1226.6
298.15 K, w2 = 0.00094 | 0.227 | – | – | –
298.15 K, w2 = 0.00102 | – | – | 1370.45 | –
298.15 K, w2 = 0.00106 | – | – | – | 1227.4
298.15 K, w2 = 0.00112 | – | 4.85e-05 | – | –
298.15 K, w2 = 0.00722 | – | – | 1367.04 | –
298.15 K, w2 = 0.00727 | 0.289 | – | – | –
298.15 K, w2 = 0.007315 | – | – | – | 1230.3
298.15 K, w2 = 0.00784 | 0.295 | – | – | –
298.15 K, w2 = 0.00819 | – | 3.63e-05 | – | –
298.15 K, w2 = 0.00898 | 0.306 | – | – | –
308.15 K, w2 = 1e-05 | 0.328 | – | – | –
308.15 K, w2 = 0.00094 | 0.34 | – | – | –
323.15 K, w2 = 1e-05 | 0.548 | – | – | –
323.15 K, w2 = 0.00094 | 0.566 | – | – | –
